The record followed here is US20170066717A1, “NEW PHENYLAZETIDINECARBOXYLATE OR -CARBOXAMIDE COMPOUNDS” (INVENTIVA, priority 2014, published 2017).

Molecules are shown by their SMILES.

For one data set, the target named is T1, NURR-1/RXRα (Homo sapiens, UniProt P19793).
T1 construct: expressed in transfected cells; host or cells: Cos-7 cells
The data set is described as follows: Transactivation test, NURR-1-Gal4/RXRα, luciferase reporter in Cos-7 cells. The data set is classed as cell-based. Particulars: for Emax: COS-7, induction level relative to reference XCT0135908 at 2×10^−5 M (=100%), read-out: hNurr1_RXRaFL Emax (%); for EC50: Cos-7 cells, NURR-1-Gal4/RXRα, luciferase reporter, read-out: hNurr1_RXRaFL EC50. On the technique in general: Reporter assays use an easily measured gene product as a stand-in for the process of interest.

The next data set has as its target T2, NURR-1/RXRγ (Homo sapiens, UniProt P48443).
T2 construct: expressed in transfected cells; host or cells: Cos-7 cells
The data set is described as follows: Transactivation test, NURR-1-Gal4/RXRγ, luciferase reporter in Cos-7 cells. Format: cell-based. To be noted: for Emax: COS-7, induction level relative to reference XCT0135908 at 2×10^−5 M (=100%), read-out: hNurr1_RXRgFL Emax (%); for EC50: Cos-7 cells, NURR-1-Gal4/RXRγ, luciferase reporter, read-out: hNurr1_RXRgFL EC50.

T1 sequence (P19793 whole entry): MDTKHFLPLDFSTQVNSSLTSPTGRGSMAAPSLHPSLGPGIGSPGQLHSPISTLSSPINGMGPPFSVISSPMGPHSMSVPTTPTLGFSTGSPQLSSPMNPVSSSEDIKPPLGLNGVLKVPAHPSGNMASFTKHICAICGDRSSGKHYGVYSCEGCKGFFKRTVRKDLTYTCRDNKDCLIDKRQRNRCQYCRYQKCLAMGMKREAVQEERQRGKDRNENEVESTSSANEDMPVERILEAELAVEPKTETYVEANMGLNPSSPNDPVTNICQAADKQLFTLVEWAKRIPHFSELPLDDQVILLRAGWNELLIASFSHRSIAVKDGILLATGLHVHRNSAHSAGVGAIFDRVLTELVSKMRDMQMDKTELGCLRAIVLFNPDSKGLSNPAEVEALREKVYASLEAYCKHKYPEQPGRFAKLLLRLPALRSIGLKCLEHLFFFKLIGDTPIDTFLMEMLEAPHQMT
T1 sequence (P43354 whole entry partner): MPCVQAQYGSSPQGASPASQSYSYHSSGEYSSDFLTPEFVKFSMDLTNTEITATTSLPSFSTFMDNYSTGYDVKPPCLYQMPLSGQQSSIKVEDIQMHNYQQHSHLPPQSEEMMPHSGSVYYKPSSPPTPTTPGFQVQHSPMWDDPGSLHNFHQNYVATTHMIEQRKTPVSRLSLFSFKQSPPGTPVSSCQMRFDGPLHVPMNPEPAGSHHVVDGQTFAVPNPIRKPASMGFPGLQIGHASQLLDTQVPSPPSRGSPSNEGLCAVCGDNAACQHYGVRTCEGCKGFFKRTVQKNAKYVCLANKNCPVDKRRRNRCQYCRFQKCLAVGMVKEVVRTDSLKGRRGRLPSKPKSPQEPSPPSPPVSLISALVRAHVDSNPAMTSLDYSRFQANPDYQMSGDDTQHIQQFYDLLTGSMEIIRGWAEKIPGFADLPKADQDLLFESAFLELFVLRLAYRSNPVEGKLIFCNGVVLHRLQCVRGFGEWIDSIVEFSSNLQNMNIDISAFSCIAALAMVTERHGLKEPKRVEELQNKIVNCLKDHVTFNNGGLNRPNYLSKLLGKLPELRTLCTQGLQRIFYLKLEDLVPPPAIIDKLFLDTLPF
T1 sequence (P04386 1-147 partner limits assumed): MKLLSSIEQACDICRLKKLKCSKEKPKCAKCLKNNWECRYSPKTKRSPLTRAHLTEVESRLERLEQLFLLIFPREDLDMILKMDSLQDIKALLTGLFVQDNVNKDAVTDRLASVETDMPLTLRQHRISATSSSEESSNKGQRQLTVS
T2 sequence (P48443 whole entry): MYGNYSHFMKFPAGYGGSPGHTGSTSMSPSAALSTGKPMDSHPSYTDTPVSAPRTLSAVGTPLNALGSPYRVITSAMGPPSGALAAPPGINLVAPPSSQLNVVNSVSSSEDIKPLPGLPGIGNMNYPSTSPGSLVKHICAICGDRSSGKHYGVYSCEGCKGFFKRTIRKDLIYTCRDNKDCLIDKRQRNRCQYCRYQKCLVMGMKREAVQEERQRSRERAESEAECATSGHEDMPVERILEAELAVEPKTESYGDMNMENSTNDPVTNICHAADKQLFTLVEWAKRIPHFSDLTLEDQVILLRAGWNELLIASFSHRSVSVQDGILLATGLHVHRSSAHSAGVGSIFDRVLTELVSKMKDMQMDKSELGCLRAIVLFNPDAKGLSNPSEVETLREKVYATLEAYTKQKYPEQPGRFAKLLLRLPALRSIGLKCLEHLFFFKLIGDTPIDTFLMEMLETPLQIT
T2 sequence (P43354 whole entry partner): as the sequence (P43354 whole entry partner) above
T2 sequence (P04386 1-147 partner limits assumed): as the sequence (P04386 1-147 partner limits assumed) above

`CC(C)c1cc2c(c(-c3cccc(N4CC(C(=O)O)C4)c3)c1)NCC(C)(C)O2` [Example 191, 1-[3-(7-isopropyl-2,2-dimethyl-3,4-dihydro-1,4-benzoxazin-5-yl)phenyl]azetidine-3-carboxylic acid]: the melting point fell in the range of 78 to 83 °C. Besides, on NURR-1/RXRα, the Emax was determined as 90% and the half-maximal effective concentration (EC50) was 31 nM. Moreover, at NURR-1/RXRγ, the Emax turned out to be 91% and the EC50 turned out to be 47 nM.
The compound `CC1(C)CNc2c(cc(C3CC3)cc2-c2cccc(N3CC(C(=O)O)C3)c2)O1` [Example 192, 1-[3-(7-cyclopropyl-2,2-dimethyl-3,4-dihydro-1,4-benzoxazin-5-yl)phenyl]azetidine-3-carboxylic acid] had a melting point of 70 to 74 °C. At NURR-1/RXRα, the maximal response (Emax) worked out at 92% and the EC50 was 40 nM. Moreover, at NURR-1/RXRγ, the Emax was 89% and the concentration for a half-maximal effect (EC50) came to 102 nM.
On to `COc1cc2c(c(-c3cccc(N4CC(C(=O)[O-])C4)c3)c1)NCC(C)(C)O2.[Na+]` [Example 193, sodium 1-[3-(7-methoxy-2,2-dimethyl-3,4-dihydro-1,4-benzoxazin-5-yl)phenyl]azetidine-3-carboxylate], for which the melting point was in the range of 144 to 152 °C. Further, at NURR-1/RXRα, the maximum response (Emax) was found to be 109% and the EC50 came out at 1170 nM. Further, at NURR-1/RXRγ, the Emax amounted to 85% and the EC50 is 799 nM.
In the same order, the values of `CC1Nc2c(cc(C(F)(F)F)cc2-c2cccc(N3CC(C(=O)O)C3)c2)OC1(C)C` (stereo not drawn) [Example 197, 1-[3-[2,2,3-trimethyl-7-(trifluoromethyl)-3,4-dihydro-1,4-benzoxazin-5-yl]phenyl]azetidine-3-carboxylic acid] are 83 to 95 °C, 55%, 14 nM, 50% and 34 nM.
The matching figures for `CC(C)C1CNc2c(cc(C(F)(F)F)cc2-c2cccc(N3CC(C(=O)O)C3)c2)O1` (stereo not drawn) [Example 198, 1-[3-[2-isopropyl-7-(trifluoromethyl)-3,4-dihydro-2H-1,4-benzoxazin-5yl]phenyl]azetidine-3-carboxylic acid]: 88 to 89 °C, 71%, 14 nM, 59% and 38 nM.
The matching figures for `O=C(O)C1CN(c2cccc(-c3cc(C(F)(F)F)cc4c3NCCC4)c2)C1` [Example 201, 1-[3-[6-(trofluromethyl)-1,2,3,4-tetrahydroquinolin-8-yl]phenyl]azetidine-3-carboxylic acid]: 75 to 81 °C, 99%, 284 nM, 65% and 760 nM.
As to `CC1(C)CNc2cc(C(F)(F)F)cc(-c3cccc(N4CC(C(=O)O)C4)c3)c2O1` [Example 202, 1-[3-[2,2-dimethyl-6-(trifluoromethyl)-3,4-dihydro-1,4-benzoxazin-8-yl]phenyl]azetidine-3-carboxylic acid], the melting point was in the range of 160 to 169 °C. In addition, at NURR-1/RXRα, the maximal effect (Emax) was determined as 55% and the concentration for a half-maximal effect (EC50) amounted to 309 nM. In addition, on NURR-1/RXRγ, the Emax is 51% and the EC50 came out at 303 nM.
In the same order, the values of `CC1(C)CNc2c(cc(C(C)(C)C)cc2-c2cccc(N3CC(C(=O)[O-])C3)c2)C1.[Na+]` [Example 204, sodium 1-[3-(6-tert-butyl-3,3-dimethyl-2,4-dihydro-1H-quinolin-8-yl)phenyl]azetidine-3-carboxylate] are 163 to 173 °C, 87%, 3 nM, 84% and 3 nM.
`CC1N(c2cccc(N3CC(C(=O)O)C3)c2)c2ccc(C(F)(F)F)cc2OC1(C)C` (stereo not drawn) [Example 216, 1-[3-[2,2,3-trimethyl-7-(trifluoromethyl)-3H-1,4-benzoxazin-4-yl]phenyl]azetidine-3-carboxylate acid] had a melting point of 70 to 80 °C. Besides, at NURR-1/RXRα, the maximal effect (Emax) amounted to 98% and the concentration giving a half-maximal response (EC50) was 8 nM. Besides, at NURR-1/RXRγ, the maximal response (Emax) turned out to be 115% and the 50% effective concentration (EC50) worked out at 13 nM.
The matching figures for `CCC1(CC)CN(c2cccc(N3CC(C(=O)O)C3)c2)c2ccc(C(F)(F)F)cc2O1` [Example 218, 1-[3-[2,2-diethyl-7-(trifluoromethyl)-3H-1,4-benzoxazin-4-yl]phenyl]azetidine-3-carboxylic acid]: 70 to 79 °C, 72%, 5 nM, 73% and 14 nM.
In the same order, the values of `CC1(C)Cc2cc(C(F)(F)F)ccc2N(c2cccc(N3CC(C(=O)O)C3)c2)C1` [Example 219, 1-[3-[3,3-dimethyl-6-(trifluoromethyl)-2,4-dihydroquinolin-1-yl]phenyl]azetidine-3-carboxylic acid] are 66 to 84 °C, 105%, 5 nM, 110% and 32 nM.
As to `O=C(O)C1CN(c2cccc(N3CCCc4cc(C(F)(F)F)ccc43)c2)C1` [Example 220, 1-[3-[6-(trifluoromethyl)-3,4-dihydro-2H-quinolin-1-yl]phenyl]azetidine-3-carboxylic acid], the melting point lay within 57 to 62 °C. Further, at NURR-1/RXRα, the maximal response (Emax) turned out to be 92% and the EC50 turned out to be 6 nM. For the same compound, at NURR-1/RXRγ, the Emax came out at 90% and the EC50 is 14 nM.
Turning to `CC(C)c1ccc2c(c1)CCCN2c1cccc(N2CC(C(=O)[O-])C2)c1.[Na+]` [Example 221, sodium 1-[3-(6-isopropyl-3,4-dihydro-2H-1uinolin-1-yl)phenyl]azetidine-3-carboxylate], the melting point lay in the range of 49 to 52 °C. For the same compound, at NURR-1/RXRα, the maximal effect (Emax) turned out to be 97% and the half-maximal effective concentration (EC50) was found to be 68 nM. Besides, at NURR-1/RXRγ, the maximal effect (Emax) stood at 92% and the half-maximal effective concentration (EC50) was determined as 228 nM.
The matching figures for `CC(C)C1CN(c2cccc(N3CC(C(=O)O)C3)c2)c2ccc(C(F)(F)F)cc2O1` (stereo not drawn) [Example 223, 1-[3-[2-isopropyl-7-(trifluoromethyl)-2,3-dihydro-1,4-benzoxazin-4-yl]phenyl]azetidine-3-carboxylic acid]: 64 to 71 °C, 80%, 25 nM, 81% and 48 nM.
The matching figures for `CC1(C)CN(c2cccc(N3CC(C(=O)O)C3)c2)c2ccc(Cl)cc2O1` [Example 224, 1-[3-(7-chloro-2,2-dimtethyl-3H-1,4-benzoxazin-4-yl)phenyl]azetidine-3-carboxylic acid]: 66 to 71 °C, 110%, 38 nM, 93% and 65 nM.
The matching figures for `CC1(C)CN(c2cccc(N3CC(C(=O)O)C3)c2)c2ccc(OC(F)(F)F)cc2O1` [Example 226, 1-[3-[2,2-dimethyl-7-(trifluoromethyoxy)-3H-1,4-benzoxazin-4-yl]phenyl]azetidine-3-carboxylic acid]: 69 to 76 °C, 103%, 71 nM, 106% and 156 nM.
With `Cc1ccc2c(c1)OC(C)(C)CN2c1cccc(N2CC(C(=O)O)C2)c1` [Example 227, 1-[3-(2,2,7-trimethyl-3H-1,4-benzoxazin-4-yl)phenyl]azetidine-3-carboxylic acid], the melting point lay in the range of 68 to 78 °C. On NURR-1/RXRα, the maximal response (Emax) was found to be 104% and the EC50 stood at 78 nM. In addition, at NURR-1/RXRγ, the maximal response (Emax) stood at 93% and the EC50 was found to be 181 nM.
In the same order, the values of `CC1(C)CN(c2cccc(N3CC(C(=O)O)C3)c2)c2ccc(C3CC3)cc2O1` [Example 229, 1-[3-(7-cyclopropyl-2,2-dimethyl-3H-1,4-benzoxazin-4yl)phenyl]azetidine-3-carboxylic acid] are 67 to 71 °C, 104%, 243 nM, 104% and 420 nM.
The matching figures for `CC(C)c1ccc2c(c1)OCCN2c1cccc(N2CC(C(=O)O)C2)c1` [Example 232, 1-[3-(7-isopropyl-2,3-dihydro-1,4-benzoxazin-4-yl)phenyl]azetidine-3-carboxylic acid]: 48 to 51 °C, 97%, 386 nM, 99% and 465 nM.
The matching figures for `COc1ccc2c(c1)OC(C)(C)CN2c1cccc(N2CC(C(=O)O)C2)c1` [Example 233, 1-[3-(7-methoxy-2,2-dimethyl-3H-1,4-benzoxazin-4-yl)phenyl]azetidine-3-catboxylic aicd]: 54 to 56 °C, 97%, 1570 nM, 52% and 1500 nM.
Regarding `CC(C)c1ccc2c(c1)OC(C)(C)CCN2c1cccc(N2CC(C(=O)O)C2)c1` [Example 234, 1-[3-(8-isopropyl-2,2-dimethyl-3,4-dihydro-1,5-benzoxazepin-5-yl)phenyl]azetidine-3-carboxylic acid], the melting point was 64 to 68 °C. Moreover, at NURR-1/RXRα, the Emax is 95% and the EC50 is 1710 nM. Besides, at NURR-1/RXRγ, the maximum response (Emax) came out at 81% and the EC50 worked out at 2260 nM.

One may read the melting point as the temperature, or range, at which the solid turns liquid. For orientation: Emax means the maximal effect, on the per cent scale that the assay sets. Broadly, the EC50 is the concentration that produces a half-maximal response.
